Measurements: US20070072938A1, “DRONABINOL TREATMENT OF DELAYED CHEMOTHERAPY-INDUCED NAUSEA AND VOMITING” (priority 2005, published 2007)
Marks after values point to notes of the source that are not given here.

Columns and labels:
[1] = test system: patients receiving moderately to highly emetogenic chemotherapy; experiment: Other analyses: rescue antiemetic use and compliance with study medication; assay type: in vivo, human
Protocol: (§1) A kit of open-label antiemetics (metoclopramide 10 mg, prochlorperazine 5 mg, and prochlorperazine 25-mg suppository) was provided to the study participants for use on Days 1 through 8 as rescue medications to treat intolerable nausea and vomiting and/or retching after using the maximum dose of study medication at any dosing interval. Patients recorded the use of rescue medication and returned the unused portion of the kit.
For the primary efficacy parameter, a logistic regression model was used for the primary analysis and a Cochran-Mantel-Haenszel (“CMH”) test stratified by pooled center was performed as a supportive analysis. Continuous secondary efficacy parameters were analyzed for all pairwise comparisons using a 2-way analysis of variance (“ANOVA”) with treatment and pooled center as fixed factors. For data that was not normally distributed, data were ranked, and an ANOVA was performed on the ranked scores. Categorical secondary efficacy parameters were analyzed for all pairwise comparisons using the CMH test stratified by pooled center. No adjustment for multiple comparisons was performed for the secondary efficacy parameters. No interactions were examined for the secondary efficacy parameters. Compliance with study medication was defined as taking all doses of supplied medication and was measured throughout the trial.

[2] = test system: patients receiving moderately to highly emetogenic chemotherapy; experiment: Safety and tolerability: treatment-emergent adverse events (safety population); conditions: human, in vivo
Protocol: (§2) A randomized, double-blind, placebo-controlled, parallel-group study evaluating the antiemetic efficacy and tolerability of oral dronabinol alone, dronabinol in combination with ondansetron, ondansetron alone, and placebo in patients receiving moderate to high emetogenic chemotherapy was conducted. All patients received dexamethasone 20 mg and ondansetron 16 mg intravenously prechemotherapy. […] On Day 2, placebo or fixed doses of 10 mg dronabinol, 16 mg ondansetron, or dronabinol plus ondansetron were administered. On Days 3-5, patients received placebo, flexible doses of 10-20 mg dronabinol, 8-16 mg ondansetron, or dronabinol plus ondansetron. Rescue antiemetics were permitted after using the maximum dose of medication. The primary efficacy variable was total response (“TR”) to study medication (TR=nausea intensity<5 mm on a 100-mm visual analog scale, no vomiting/retching, no rescue antiemetic). Secondary efficacy parameters included nausea status and intensity, as well as episodes of vomiting/retching. […] TR and presence/absence of nausea were evaluated using the Fisher's Exact Test. Tolerability was assessed by physical examination and adverse events.
AEs and concomitant medications were also assessed.

[3] = test system: patients receiving moderately to highly emetogenic chemotherapy; experiment: Randomized, double-blind, placebo-controlled study: antiemetic efficacy in delayed CINV (Days 2-5); assay type: in vivo, human
Protocol: as §2
All efficacy analyses were based on the ITT population.
This was a randomized, double-blind, placebo-controlled, parallel-group, 5-day study to evaluate the antiemetic efficacy and safety of oral dronabinol (sole under the trade name, Marinol®) alone, and in combination with ondansetron (sole under the trade name, Zofran®), versus ondansetron alone in patients receiving moderately to highly emetogenic chemotherapy. The investigator obtained written approval from the Institutional Review Board, and the study was conducted in accordance with the Declaration of Helsinki.
Patients who entered the study were to undergo cancer chemotherapy with moderately to highly emetogenic agents on Day 1 when they were randomized into 1 of 4 treatment groups: dronabinol alone (Group Dronabinol), ondansetron alone (Group Ondansetron), combination therapy with dronabinol and ondansetron (Group Dronabinol/Ondansetron), or placebo (Group Placebo). All patients received a standard prechemotherapy regimen of dexamethasone (20 mg) and ondansetron (16 mg). […] Placebo patients received matching placebo prechemotherapy and postchemotherapy on Day 1.
as §1
Each morning, patients recorded the number of vomiting and/or retching episodes in the previous day. In addition, the patient recorded the daily presence or absence of nausea and its duration.
The primary efficacy measure was the incidence of total response to treatment following administration of moderately to highly emetogenic chemotherapeutic agents. Total response was defined as no vomiting and/or retching, intensity of nausea <5 mm on a 100-mm Visual Analog Scale (VAS scale 0-100 mm; 0 mm=no nausea; 100 mm=intractable nausea), and no use of rescue medication.
The secondary efficacy analysis included patients who took rescue medication. However, analyses were conducted only on data collected before the use of any rescue medication. The secondary efficacy assessments were complete response, presence or absence of nausea, episodes of vomiting and/or retching, duration of nausea and vomiting and/or retching, intensity of nausea measured by VAS, ECOG (wellness), and QoL. Complete response for vomiting/retching was defined as no vomiting/retching, intensity of nausea of ≦30 mm on the VAS, and no use of rescue therapy.

For Cc1nccn1CC1CCc2c(c3ccccc3n2C)C1=O (centres unmarked) [Ondansetron, ondansetron], the “patients who required rescue medicine” value ([1]; Day 5) was 25%, the “Rescue antiemetics used (patients)” value ([1]; whole study) was 31% and the “Adverse event: Asthenia” value [2] was 1 (6) n (%). The “Adverse event: Chest pain” value [2] was 2 (13) n (%), the “Adverse event: Constipation” value [2] was 2 (13) n (%) and the “Adverse event: Diarrhea” value [2] was 1 (6) n (%). The “Adverse event: Dizziness” value [2] was 1 (6) n (%), the “Adverse event: Fatigue” value [2] was 1 (6) n (%) and the “Adverse event: Headache” value [2] was 3 (19) n (%). For the same compound, the “Adverse event: Hyperglycemia” value [2] was 2 (13) n (%), the “Adverse event: Insomnia” value [2] was 2 (13) n (%) and the “Patients who permanently discontinued study medication because of a TEAE” value [2] was 2 (13) n (%). The “Patients with at least 1 SAE” value [2] was 1 (6) n (%), the “Patients with at least 1 TEAE” value [2] was 14 (88) n (%) and the “Patients with at least 1 TEAE leading to dose reduction” value [2] was 0 n (%). The “Patients with at least 1 severe TEAE” value [2] was 1 (6) n (%), the “Duration of nausea: 3-6 h” value ([3]; Day 2) was 0 n (%) and the “Duration of nausea: 6-8 h” value ([3]; Day 2) was 0 n (%). The “Duration of nausea: 8-10 h” value ([3]; Day 2) was 0 n (%), the “Duration of nausea: <3 h” value ([3]; Day 2) was 4 (33) n (%) and the “Duration of nausea: >10 h” value ([3]; Day 2) was 1 (8) n (%). The “Duration of nausea: No nausea reported” value ([3]; Day 2) was 7 (58) n (%), the “Observed Duration of Vomiting/Retching (mean ± SD)” value ([3]; Day 2) was 2.00 ± 6.93 h and the “Duration of nausea: 3-6 h” value ([3]; Day 3) was 0 n (%). The “Duration of nausea: 6-8 h” value ([3]; Day 3) was 1 (10) n (%), the “Duration of nausea: 8-10 h” value ([3]; Day 3) was 0 n (%) and the “Duration of nausea: <3 h” value ([3]; Day 3) was 1 (10) n (%). For the same compound, the “Duration of nausea: >10 h” value ([3]; Day 3) was 0 n (%), the “Duration of nausea: No nausea reported” value ([3]; Day 3) was 8 (80) n (%) and the “Observed Duration of Vomiting/Retching (mean ± SD)” value ([3]; Day 3) was 0.06 ± 0.17 h. For the same compound, the “Duration of nausea: 3-6 h” value ([3]; Day 4) was 0 n (%), the “Duration of nausea: 6-8 h” value ([3]; Day 4) was 0 n (%) and the “Duration of nausea: 8-10 h” value ([3]; Day 4) was 0 n (%). The “Duration of nausea: <3 h” value ([3]; Day 4) was 1 (13) n (%), the “Duration of nausea: >10 h” value ([3]; Day 4) was 0 n (%) and the “Duration of nausea: No nausea reported” value ([3]; Day 4) was 7 (88) n (%). For the same compound, the “Observed Duration of Vomiting/Retching (mean ± SD)” value ([3]; Day 4) was 0.00 ± 0.00 h, the “Duration of nausea: 3-6 h” value ([3]; Day 5) was 1 (14) n (%) and the “Duration of nausea: 6-8 h” value ([3]; Day 5) was 0 n (%). For the same compound, the “Duration of nausea: 8-10 h” value ([3]; Day 5) was 0 n (%), the “Duration of nausea: <3 h” value ([3]; Day 5) was 0 n (%) and the “Duration of nausea: >10 h” value ([3]; Day 5) was 0 n (%). For the same compound, the “Duration of nausea: No nausea reported” value ([3]; Day 5) was 6 (86) n (%), the “Observed Duration of Vomiting/Retching (mean ± SD)” value ([3]; Day 5) was 0.02 ± 0.06 h and the Absence of nausea ([3]; Days 2-5) was 64^† %. The “Absence of nausea (frequency/n)” value ([3]; Days 2-5) was “(9/14)”, the Mean vomiting/retching ([3]; Days 2-5) was 1.3 episodes/day and the “Total response (frequency/n)” value ([3]; Days 2-5) was “(7/12)”. The Mean nausea intensity ([3]; Days 2-5, 100-mm VAS) was 24.0^† mm, the Absence of nausea ([3]; Days 2-5, listed as ondansetron) was 64% and the Total response ([3]; Days 2-5 LOCF end point, TR = nausea <5 mm VAS, no vomiting/retching, no rescue) was 58%. For the same compound, the “Complete Response: No” value ([3]; LOCF End Point (Days 2-5)) was 5 (42) n (%) and the “Complete Response: Yes” value ([3]; LOCF End Point (Days 2-5)) was 7 (58)* n (%).
